Columns and labels:
Experiment in all cases: Cysteine liganding, probe competition
Type in all cases: binding
[1] = molecular target: T1, HERC5 E3 ISG15--protein ligase HERC5 (Homo sapiens, UniProt Q9UII4); settings: for Liganded: HERC5 Res# 994, uniprot Q9UII4
T1 construct: Cells were resuspended in cold PBS on ice and sonicated with a probe sonicator to achieve lysis; endogenous in cells
T1 sequence (Q9UII4 1-1024): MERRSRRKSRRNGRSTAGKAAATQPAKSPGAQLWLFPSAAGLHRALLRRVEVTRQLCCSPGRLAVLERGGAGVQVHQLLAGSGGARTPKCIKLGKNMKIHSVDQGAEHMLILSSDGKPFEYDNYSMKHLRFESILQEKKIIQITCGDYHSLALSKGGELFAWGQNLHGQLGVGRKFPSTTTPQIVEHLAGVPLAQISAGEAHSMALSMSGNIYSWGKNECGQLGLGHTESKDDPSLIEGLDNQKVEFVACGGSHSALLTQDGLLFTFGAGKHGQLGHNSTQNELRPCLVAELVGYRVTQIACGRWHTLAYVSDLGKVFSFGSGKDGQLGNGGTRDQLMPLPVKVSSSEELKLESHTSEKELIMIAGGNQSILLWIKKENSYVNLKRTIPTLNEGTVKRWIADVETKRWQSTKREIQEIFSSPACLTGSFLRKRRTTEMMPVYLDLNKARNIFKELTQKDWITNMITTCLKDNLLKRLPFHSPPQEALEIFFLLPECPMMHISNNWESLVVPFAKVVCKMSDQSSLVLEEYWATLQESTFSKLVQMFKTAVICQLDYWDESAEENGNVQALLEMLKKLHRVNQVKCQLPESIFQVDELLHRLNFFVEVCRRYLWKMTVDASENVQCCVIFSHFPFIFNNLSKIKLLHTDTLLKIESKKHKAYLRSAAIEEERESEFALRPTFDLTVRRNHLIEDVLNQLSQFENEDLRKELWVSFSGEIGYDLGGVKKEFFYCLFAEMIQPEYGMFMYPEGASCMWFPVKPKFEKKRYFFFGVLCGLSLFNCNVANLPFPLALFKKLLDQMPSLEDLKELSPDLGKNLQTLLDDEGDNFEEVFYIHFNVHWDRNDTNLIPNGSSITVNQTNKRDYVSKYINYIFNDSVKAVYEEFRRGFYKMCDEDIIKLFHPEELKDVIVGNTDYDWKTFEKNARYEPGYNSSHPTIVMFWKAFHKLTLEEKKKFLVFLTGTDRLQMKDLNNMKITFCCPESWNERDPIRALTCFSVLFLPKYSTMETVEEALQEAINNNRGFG
Method in brief: (§1)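 Read-out is loss of desthiobiotin iodoacetamide labelling at cysteines, measured on streptavidin-enriched tryptic peptides. Compound preincubation ran 1 hr at 25° C in PBS lysate holding 5 mg/ml proteome before the probe was added.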

[2] = molecular target: T2, MAPK8 Mitogen-activated protein kinase 8 (Homo sapiens, UniProt P45983); settings: for 100 Max / 100 ave / 500 ave / 500 Max: uniprot P45983; for 500 Max: in % (unit assumed)
T2 construct: Cells were resuspended in cold PBS on ice and sonicated with a probe sonicator to achieve lysis; endogenous in cells
Method in brief: as §1

[3] = molecular target: T3, PRMT5 Protein arginine N-methyltransferase 5 (Homo sapiens, UniProt O14744)
T3 construct: Cells were resuspended in cold PBS on ice and sonicated with a probe sonicator to achieve lysis; endogenous in cells
Method in brief: as §1

T2 sequence (P45983 whole entry): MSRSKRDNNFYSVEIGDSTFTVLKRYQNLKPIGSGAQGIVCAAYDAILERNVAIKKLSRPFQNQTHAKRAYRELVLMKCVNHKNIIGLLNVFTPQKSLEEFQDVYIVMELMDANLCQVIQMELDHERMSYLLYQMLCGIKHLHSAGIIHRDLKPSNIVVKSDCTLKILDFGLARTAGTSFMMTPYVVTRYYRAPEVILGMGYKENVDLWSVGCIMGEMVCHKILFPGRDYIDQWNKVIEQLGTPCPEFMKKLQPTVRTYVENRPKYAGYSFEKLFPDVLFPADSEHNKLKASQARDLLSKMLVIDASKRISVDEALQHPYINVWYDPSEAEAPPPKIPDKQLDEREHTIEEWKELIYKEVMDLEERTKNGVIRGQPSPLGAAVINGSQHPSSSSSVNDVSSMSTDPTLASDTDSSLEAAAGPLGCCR
T3 sequence (O14744 whole entry): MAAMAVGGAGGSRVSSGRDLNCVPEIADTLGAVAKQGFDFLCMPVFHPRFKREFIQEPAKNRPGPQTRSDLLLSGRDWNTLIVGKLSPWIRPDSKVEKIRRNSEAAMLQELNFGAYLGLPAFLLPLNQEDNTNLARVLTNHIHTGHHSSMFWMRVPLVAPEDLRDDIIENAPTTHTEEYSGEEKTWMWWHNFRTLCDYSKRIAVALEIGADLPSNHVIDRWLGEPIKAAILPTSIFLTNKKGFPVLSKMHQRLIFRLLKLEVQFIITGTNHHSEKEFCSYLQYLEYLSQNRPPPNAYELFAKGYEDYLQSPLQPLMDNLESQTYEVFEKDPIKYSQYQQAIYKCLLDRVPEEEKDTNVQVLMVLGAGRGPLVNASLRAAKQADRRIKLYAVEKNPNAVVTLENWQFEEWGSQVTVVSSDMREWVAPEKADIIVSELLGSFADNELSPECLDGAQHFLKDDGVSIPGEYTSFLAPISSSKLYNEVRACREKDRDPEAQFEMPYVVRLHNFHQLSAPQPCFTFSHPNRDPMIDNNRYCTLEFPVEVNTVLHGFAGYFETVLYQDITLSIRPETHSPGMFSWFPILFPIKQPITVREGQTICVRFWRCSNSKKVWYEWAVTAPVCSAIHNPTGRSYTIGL
T3 sequence (Q9BQA1 whole entry partner): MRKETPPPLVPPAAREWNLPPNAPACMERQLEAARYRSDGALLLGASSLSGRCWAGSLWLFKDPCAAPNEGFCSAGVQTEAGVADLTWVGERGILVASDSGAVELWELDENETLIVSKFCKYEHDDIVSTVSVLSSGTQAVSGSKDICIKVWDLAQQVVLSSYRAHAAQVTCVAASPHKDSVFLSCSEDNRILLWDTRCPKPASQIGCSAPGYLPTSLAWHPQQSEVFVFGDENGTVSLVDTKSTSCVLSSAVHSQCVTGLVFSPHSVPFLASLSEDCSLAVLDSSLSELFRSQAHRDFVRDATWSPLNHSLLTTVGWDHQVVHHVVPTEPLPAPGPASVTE

Row | Compound | Liganded [1] | Liganded ([2]; MAPK8 Res# 245, uniprot P45983) | 100 Max [2] | 100 ave [2] | 500 ave [2] | 500 Max [2] | Liganded ([3]; PRMT5 Res# 278, uniprot O14744) | 100 Max ([1]; uniprot Q9UII4) | 100 ave ([1]; uniprot Q9UII4) | 500 Max ([1]; uniprot Q9UII4) | 500 ave ([1]; uniprot Q9UII4) | 100 ave ([3]; uniprot O14744) | 500 Max ([3]; uniprot O14744) | 500 ave ([3]; uniprot O14744) | 100 Max ([3]; uniprot O14744, in % (unit assumed))
1 | COc1ccc2c(c1)CCCN2C(=O)CCl [KB02] | YES | YES | 44.42 | 26.11 | 76.89 | 78.63 | YES |  |  |  |  |  |  |  | 
2 | O=C(CCl)Nc1cc(C(F)(F)F)cc(C(F)(F)F)c1 [KBO3] | YES |  | 17.22 | 12.33 | 40.875 | 44.06 |  | 83.4 | 83.4 | 96.8 | 96.8 | 16.62 | 45.47 | 45.47 | 16.62
